According to ChEMBL document CHEMBL5154848, “Synthesis of heterocyclic ring-fused analogs of HMG499 as novel degraders of HMG-CoA reductase that lower cholesterol” (Eur J Med Chem, 2022):

Key:
Format in all cases: cell-based
[1] = Toxicity in human SV589 cells assessed as cholesterol accumulation in lysosome at 10 uM incubated for 16 hrs by immunofluorescence based confocal microscopy; conditions: sv-589, 16 h
[2] = target: T1, 3-hydroxy-3-methylglutaryl-coenzyme A reductase (Cricetulus griseus, UniProt P00347); assay: Induction of degradation of hamster HMGCR (TM1-8)-GFP (1 to 346 residues) transfected in CHO-7 cells incubated for 16 hrs in sterol-depleted medium by fluorescence based microplate reader assay
T1 sequence (P00347 whole entry): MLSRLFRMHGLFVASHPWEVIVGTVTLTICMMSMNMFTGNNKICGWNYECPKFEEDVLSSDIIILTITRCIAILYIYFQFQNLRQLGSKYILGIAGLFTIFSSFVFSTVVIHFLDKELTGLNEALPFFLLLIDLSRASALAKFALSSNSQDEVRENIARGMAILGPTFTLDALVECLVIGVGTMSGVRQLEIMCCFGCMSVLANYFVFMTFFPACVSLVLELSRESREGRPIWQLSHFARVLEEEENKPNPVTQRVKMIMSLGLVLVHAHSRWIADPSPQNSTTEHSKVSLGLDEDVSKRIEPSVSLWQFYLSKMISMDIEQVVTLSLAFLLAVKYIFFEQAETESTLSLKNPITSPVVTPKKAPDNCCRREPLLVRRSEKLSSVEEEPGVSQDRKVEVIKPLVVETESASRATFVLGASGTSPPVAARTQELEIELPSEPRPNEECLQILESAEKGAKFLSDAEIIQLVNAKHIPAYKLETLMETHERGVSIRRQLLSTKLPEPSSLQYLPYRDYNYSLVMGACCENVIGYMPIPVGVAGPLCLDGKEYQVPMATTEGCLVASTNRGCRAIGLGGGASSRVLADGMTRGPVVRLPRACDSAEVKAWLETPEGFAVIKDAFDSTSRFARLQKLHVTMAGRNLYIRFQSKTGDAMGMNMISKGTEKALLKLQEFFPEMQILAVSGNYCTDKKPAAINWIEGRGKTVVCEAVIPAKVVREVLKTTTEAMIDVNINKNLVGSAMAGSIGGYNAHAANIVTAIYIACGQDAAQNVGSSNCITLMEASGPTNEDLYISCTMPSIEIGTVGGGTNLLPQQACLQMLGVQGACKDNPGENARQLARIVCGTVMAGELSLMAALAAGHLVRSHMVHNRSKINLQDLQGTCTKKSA

[3] = Toxicity in human SV589 cells assessed as cholesterol accumulation in lysosome at 2.5 uM incubated for 16 hrs by immunofluorescence based confocal microscopy; conditions: sv-589, 16 h

| EC50 [2] [nM] | SMILES | Activity [1] | Activity [3] |
| --- | --- | --- | --- |
| 2660 | CC(=O)n1ncc2c1C(C)(C)C1=CC[C@H]3[C@@H]4CC[C@H]([C@H](C)CCC(=O)O)[C@@]4(C)CC[C@@H]3[C@@]1(C)C2 | Non-Toxic |  |
| 480 | CC(=O)n1ncc2c1C(C)(C)C1=CC[C@H]3[C@@H]4CC[C@H]([C@H](C)CCC(=O)NC5CCOCC5)[C@@]4(C)CC[C@@H]3[C@@]1(C)C2 |  |  |
| 1630 | CCNC(=O)CC[C@@H](C)[C@H]1CC[C@H]2[C@@H]3CC=C4C(C)(C)c5c(cnn5C(C)=O)C[C@]4(C)[C@H]3CC[C@]12C |  |  |
| 820 | CNC(=O)CC[C@@H](C)[C@H]1CC[C@H]2[C@@H]3CC=C4C(C)(C)c5c(cnn5C(C)=O)C[C@]4(C)[C@H]3CC[C@]12C |  |  |
| 2730 | CC(=O)n1ncc2c1C(C)(C)C1=CC[C@H]3[C@@H]4CC[C@H]([C@H](C)CCC(=O)NCCN5CCOCC5)[C@@]4(C)CC[C@@H]3[C@@]1(C)C2 |  |  |
| 430 | CC(=O)N1CCC(NC(=O)CC[C@@H](C)[C@H]2CC[C@H]3[C@@H]4CC=C5C(C)(C)c6c(cnn6C(C)=O)C[C@]5(C)[C@H]4CC[C@]23C)CC1 |  |  |
| 2030 | CCCNC(=O)CC[C@@H](C)[C@H]1CC[C@H]2[C@@H]3CC=C4C(C)(C)c5c(cnn5C(C)=O)C[C@]4(C)[C@H]3CC[C@]12C |  |  |
| 760 | C=C(C)C(=O)n1cnc2c1C(C)(C)C1=CC[C@H]3[C@@H]4CC[C@H]([C@H](C)CCC(=O)N5CCOCC5)[C@@]4(C)CC[C@@H]3[C@@]1(C)C2 | Non-Toxic |  |
| 1260 | CC(=O)n1ncc2c1C(C)(C)C1=CC[C@H]3[C@@H]4CC[C@H]([C@H](C)CCC(=O)N5CCCCC5)[C@@]4(C)CC[C@@H]3[C@@]1(C)C2 |  |  |
| 980 | CC(=O)n1cnc2c1C(C)(C)C1=CC[C@H]3[C@@H]4CC[C@H]([C@H](C)CCCC(=O)N5CCOCC5)[C@@]4(C)CC[C@@H]3[C@@]1(C)C2 |  |  |
| 650 | CCC(=O)n1cnc2c1C(C)(C)C1=CC[C@H]3[C@@H]4CC[C@H]([C@H](C)CCC(=O)N5CCOCC5)[C@@]4(C)CC[C@@H]3[C@@]1(C)C2 | Non-Toxic |  |
| 12600 | CC(=O)n1ncc2c1C(C)(C)C1=CC[C@H]3[C@@H]4CC[C@H]([C@H](C)CCC(=O)Nc5ncc(C)s5)[C@@]4(C)CC[C@@H]3[C@@]1(C)C2 |  |  |
| 4470 | CC(=O)n1ncc2c1C(C)(C)C1=CC[C@H]3[C@@H]4CC[C@H]([C@H](C)CCC(=O)Nc5ccccc5C)[C@@]4(C)CC[C@@H]3[C@@]1(C)C2 |  |  |
| 5410 | CC(=O)n1ncc2c1C(C)(C)C1=CC[C@H]3[C@@H]4CC[C@H]([C@H](C)CCC(=O)Nc5ccc(C)cc5)[C@@]4(C)CC[C@@H]3[C@@]1(C)C2 |  |  |
| 1090 | CC(=O)n1cnc2c1C(C)(C)C1=CC[C@H]3[C@@H]4CC[C@H]([C@H](C)CCCCC(=O)N5CCOCC5)[C@@]4(C)CC[C@@H]3[C@@]1(C)C2 |  |  |

The remaining lines, values behind:

| SMILES | EC50 [2] [nM] | Activity [1] | Activity [3] |
| --- | --- | --- | --- |
| CCC(O)(CC)CCC[C@@H](C)[C@H]1CC[C@H]2[C@@H]3[C@@H](O)C=C4C(C)(C)[C@@H](O)CC[C@]4(C)[C@H]3CC[C@]12C | 410 | Toxic |  |
| CC(=O)n1ncc2c1C(C)(C)C1=CC[C@H]3[C@@H]4CC[C@H]([C@H](C)CCC(=O)Nc5nc6c(C)cccc6s5)[C@@]4(C)CC[C@@H]3[C@@]1(C)C2 | 43900 |  |  |
| C[C@H](CCC(=O)O)[C@H]1CC[C@H]2[C@@H]3CC=C4C(C)(C)c5[nH]ncc5C[C@]4(C)[C@H]3CC[C@]12C | 3990 | Non-Toxic |  |
| C[C@H](CCC(=O)O)[C@H]1CC[C@H]2[C@@H]3CC=C4C(C)(C)c5nonc5C[C@]4(C)[C@H]3CC[C@]12C | 5810 | Non-Toxic |  |
| C=CCC(O)(CC=C)CCC[C@@H](C)[C@H]1CC[C@H]2[C@@H]3[C@@H](O)C=C4C(C)(C)[C@@H](O)CC[C@]4(C)[C@H]3CC[C@]12C | 410 | Toxic |  |
| CCN(CC)CCO[C@H]1CC[C@@]2(C)C(=CC[C@@H]3[C@@H]2CC[C@]2(C)C(=O)CC[C@@H]32)C1.Cl |  |  | Toxic |
| C[C@H](CCCC(C)(C)O)[C@H]1CC[C@H]2[C@@H]3[C@@H](O)C=C4C(C)(C)[C@@H](O)CC[C@]4(C)[C@H]3CC[C@]12C | 410 | Toxic |  |
| C=CCC(O)(CC=C)CCC[C@@H](C)[C@H]1CC[C@H]2[C@@H]3[C@@H](O)C=C4C(C)(C)[C@@H](O)CC[C@]4(C)[C@H]3CC[C@]12C.Cl | 430 | Toxic |  |
| C[C@H](CCC(=O)O)[C@H]1CC[C@H]2[C@@H]3CC=C4C(C)(C)c5sc(N)nc5C[C@]4(C)[C@H]3CC[C@]12C | 4940 | Non-Toxic |  |
| Cc1nc2c(s1)C(C)(C)C1=CC[C@H]3[C@@H]4CC[C@H]([C@H](C)CCC(=O)O)[C@@]4(C)CC[C@@H]3[C@@]1(C)C2 | 3370 | Non-Toxic |  |
| CC(C)C(=O)n1cnc2c1C(C)(C)C1=CC[C@H]3[C@@H]4CC[C@H]([C@H](C)CCC(=O)N5CCOCC5)[C@@]4(C)CC[C@@H]3[C@@]1(C)C2 | 430 | Non-Toxic |  |
| C[C@H](CCC(=O)O)[C@H]1CC[C@H]2[C@@H]3CC=C4C(C)(C)c5c(cnn5-c5ccccc5)C[C@]4(C)[C@H]3CC[C@]12C | 8800 | Non-Toxic |  |
| C[C@H](CCC(=O)N1CCOCC1)[C@H]1CC[C@H]2[C@@H]3CC=C4C(C)(C)c5nnsc5C[C@]4(C)[C@H]3CC[C@]12C | 830 |  |  |
| CC(=O)n1cnc2c1C(C)(C)C1=CC[C@H]3[C@@H]4CC[C@H]([C@H](C)C(=O)N5CCOCC5)[C@@]4(C)CC[C@@H]3[C@@]1(C)C2 | 410 |  |  |
| CC(=O)n1cnc2c1C(C)(C)C1=CC[C@H]3[C@@H]4CC[C@H]([C@H](C)CC(=O)N5CCOCC5)[C@@]4(C)CC[C@@H]3[C@@]1(C)C2 | 280 |  |  |
| CCC(O)(CC)CCCC[C@@H](C)[C@H]1CC[C@H]2[C@@H]3[C@@H](O)C=C4C(C)(C)[C@@H](O)CC[C@]4(C)[C@H]3CC[C@]12C | 410 | Toxic |  |
| C[C@H](CCC(=O)O)[C@H]1CC[C@H]2[C@@H]3CC=C4C(C)(C)c5nccnc5C[C@]4(C)[C@H]3CC[C@]12C | 5020 | Non-Toxic |  |
| CCCC(=O)n1cnc2c1C(C)(C)C1=CC[C@H]3[C@@H]4CC[C@H]([C@H](C)CCC(=O)N5CCOCC5)[C@@]4(C)CC[C@@H]3[C@@]1(C)C2 | 520 | Non-Toxic |  |
| Cc1nc2c(o1)C(C)(C)C1=CC[C@H]3[C@@H]4CC[C@H]([C@H](C)CCC(=O)N5CCOCC5)[C@@]4(C)CC[C@@H]3[C@@]1(C)C2 | 28100 |  |  |
| CCOC(=O)c1noc2c1C[C@@]1(C)C(=CC[C@H]3[C@@H]4CC[C@H]([C@H](C)CCC(=O)N5CCOCC5)[C@@]4(C)CC[C@@H]31)C2(C)C | 1840 |  |  |
| CC(=O)n1cnc2c1C(C)(C)C1=C[C@H](O)[C@H]3[C@@H]4CC[C@H]([C@H](C)CCC(=O)N5CCOCC5)[C@@]4(C)CC[C@@H]3[C@@]1(C)C2 | 8160 | Toxic |  |
| CCC(O)(CC)CC[C@@H](C)[C@H]1CC[C@H]2[C@@H]3CC=C4C(C)(C)c5c(ncn5C(C)=O)C[C@]4(C)[C@H]3CC[C@]12C | 630 | Non-Toxic |  |
| CC(=O)n1ncc2c1C(C)(C)C1=CC[C@H]3[C@@H]4CC[C@H]([C@H](C)CCC(=O)Nc5nc6ccccc6s5)[C@@]4(C)CC[C@@H]3[C@@]1(C)C2 | 31400 |  |  |
| C[C@H](CCC(=O)N1CCOCC1)[C@H]1CC[C@H]2[C@@H]3CC=C4C(C)(C)c5nc(N)ncc5C[C@]4(C)[C@H]3CC[C@]12C | 8250 |  |  |
| C[C@H](CCCCC(C)(C)O)[C@H]1CC[C@H]2[C@@H]3[C@@H](O)C=C4C(C)(C)[C@@H](O)CC[C@]4(C)[C@H]3CC[C@]12C | 410 | Toxic |  |
| CCOC(=O)c1n[nH]c2c1C[C@@]1(C)C(=CC[C@H]3[C@@H]4CC[C@H]([C@H](C)CCC(=O)N5CCOCC5)[C@@]4(C)CC[C@@H]31)C2(C)C | 530 |  |  |
| CC(C)C(=O)n1cnc2c1C(C)(C)C1=C[C@H](O)[C@H]3[C@@H]4CC[C@H]([C@H](C)CCC(=O)N5CCOCC5)[C@@]4(C)CC[C@@H]3[C@@]1(C)C2 | 730 | Toxic |  |
| CC(=O)n1ncc2c1C(C)(C)C1=CC[C@H]3[C@@H]4CC[C@H]([C@H](C)CCC(=O)Nc5ncc([N+](=O)[O-])s5)[C@@]4(C)CC[C@@H]3[C@@]1(C)C2 | 4800 |  |  |
